Values after ≈ are worked out from the molar mass of the structure shown. Read-outs that look alike come from different tables or passages of the source. Values belong to the molecule of their own block, whether it stands above or below them.
How the values were obtained:
C. albicans = experiment: Broth dilution antifungal susceptibility testing, C. albicans; assay type: cell-based, Candida albicans; conditions: Candida albicans, 50% reduction in turbidity, read-out: minimum inhibitory concentration (MIC)
Description: (§1) A total of 23 isolates were tested to include 3 Candida albicans, 3 Candida glabrata, 3 Cryptococcus neoformans, 3 Aspergillus fumigatus, 3 Rhizopus oryzae, 3, Fusarium solani, 3 Pseudallescheria boydii, and 2 […]. All isolates were clinical isolates submitted to the Fungus Testing Laboratory for evaluation. Antifungal susceptibility testing was accomplished according to the methods outlined in the National Committee for Clinical Laboratory Standards, M-27A2, Reference Method for Broth Dilution Antifungal Susceptibility Testing of Yeasts; Approved Standard, and M38-A “Reference Method for Broth Dilution Antifungal Susceptibility Testing of Conidium-Forming Filamentous Fungi; Approved Standard”. This includes testing in RPMI-1640 with glutamine and without bicarbonate, an inoculum size of 0.5-2.5×10^3 for yeasts or […] for moulds, and incubation at 35° C. for 24 and 48 hours. […] Drug concentrations were 0.125-64 μg/ml. A 10 mg portion of each powder was weighed out and added to 1 ml of 100% DMSO for compound 205. The resulting concentration of […] was diluted to a working concentration of 6400 μg/ml for compound 205 in 100% DMSO. All subsequent dilutions were also made using the respective diluents. Final testing concentrations ranged from 0.125-64 μg/ml. The NCCLS recommended medium RPMI-1640 (Hardy Diagnostics, Santa Monica, Calif.) was utilized as the test medium. All isolates in this study were clinical isolates received in the Fungus Testing Laboratory for standard antifungal susceptibility testing and/or identification. Isolates, which were not sent for identification, were confirmed to assure testing integrity. A total of 23 were tested to include 3 Candida albicans, 3 Candida glabrata, 3 Cryptococcus neoformans, 3 Aspergillus fumigatus, 3 Rhizopus oryzae, 3, Fusarium solani, 3 Pseudallescheria boydii, and 2 […]. Minimum inhibitory concentrations (MIC) were determined at the first 24-hour interval where growth could be determined in the drug-free control tube.

C. glabrata = experiment: Broth dilution antifungal susceptibility testing, C. glabrata; assay type: cell-based, Candida glabrata; conditions: Nakaseomyces glabratus, 50% reduction in turbidity, read-out: minimum inhibitory concentration (MIC)
Description: as §1

C. neoformans = experiment: Broth dilution antifungal susceptibility testing, C. neoformans; assay type: cell-based; conditions: Cryptococcus neoformans, 50% reduction in turbidity, read-out: minimum inhibitory concentration (MIC)
Description: as §1

R. arrhizus = experiment: Broth dilution antifungal susceptibility testing, R. arrhizus; assay type: cell-based, Rhizopus oryzae; conditions: Rhizopus arrhizus, 80% inhibition, read-out: minimum inhibitory concentration (MIC)
Description: as §1

F. solani = experiment: Broth dilution antifungal susceptibility testing, F. solani; assay type: cell-based; conditions: Fusarium solani, 80% inhibition, read-out: minimum inhibitory concentration (MIC)
Description: as §1

S. apiospermum = experiment: Broth dilution antifungal susceptibility testing, S. apiospermum; assay type: cell-based, Pseudallescheria boydii; conditions: Scedosporium apiospermum, 80% inhibition, read-out: minimum inhibitory concentration (MIC)
Description: as §1

A. fumigatus = experiment: Broth dilution antifungal susceptibility testing, A. fumigatus; assay type: cell-based, Aspergillus fumigatus; conditions: Aspergillus fumigatus, 80% inhibition, read-out: minimum inhibitory concentration (MIC)
Description: as §1

T. rubrum = experiment: Broth dilution antifungal susceptibility testing, T. rubrum; assay type: cell-based, Trichophyton rubrum; conditions: Trichophyton rubrum, 80% inhibition, read-out: minimum inhibitory concentration (MIC)
Description: as §1

[1] = 24 h, isolate 07-3006, 24 hours
[2] = 24 h, isolate 07-3011, 24 hours
[3] = 24 h, isolate 07-3012, 24 hours
[4] = 48 h, isolate 07-3006, 48 hours
[5] = 48 h, isolate 07-3011, 48 hours
[6] = 48 h, isolate 07-3012, 48 hours
[7] = 24 h, isolate 07-2964, 24 hours
[8] = 24 h, isolate 07-2965, 24 hours
[9] = 24 h, isolate 07-3013, 24 hours
[10] = 48 h, isolate 07-2964, 48 hours
[11] = 48 h, isolate 07-2965, 48 hours
[12] = 48 h, isolate 07-3013, 48 hours
[13] = 24 h, isolate 07-2665, 24 hours
[14] = 24 h, isolate 07-2737, 24 hours
[15] = 24 h, isolate 07-2829, 24 hours
[16] = 48 h, isolate 07-2665, 48 hours
[17] = 48 h, isolate 07-2737, 48 hours
[18] = 48 h, isolate 07-2829, 48 hours
[19] = 24 h, isolate 07-1870, 24 hours
[20] = 24 h, isolate 07-2044, 24 hours
[21] = 24 h, isolate 07-2078, 24 hours
[22] = 48 h, isolate 07-1870, 48 hours
[23] = 48 h, isolate 07-2044, 48 hours
[24] = 48 h, isolate 07-2078, 48 hours
[25] = 24 h, isolate 07-1399, 24 hours
[26] = 24 h, isolate 07-1755, 24 hours
[27] = 24 h, isolate 07-1867, 24 hours
[28] = 48 h, isolate 07-1399, 48 hours
[29] = 48 h, isolate 07-1755, 48 hours
[30] = 48 h, isolate 07-1867, 48 hours
[31] = 24 h, isolate 07-1333, 24 hours
[32] = 24 h, isolate 07-1502, 24 hours
[33] = 24 h, isolate 07-1601, 24 hours
[34] = 48 h, isolate 07-1333, 48 hours
[35] = 48 h, isolate 07-1502, 48 hours
[36] = 48 h, isolate 07-1601, 48 hours
[37] = 24 h, isolate 06-4126, 24 hours
[38] = 24 h, isolate 07-2039, 24 hours
[39] = 48 h, isolate 06-4126, 48 hours
[40] = 48 h, isolate 07-2039, 48 hours
[41] = 24 h, isolate 07-1743, 24 hours
[42] = 24 h, isolate 07-2055, 24 hours
[43] = 48 h, isolate 07-1743, 48 hours
[44] = 48 h, isolate 07-2055, 48 hours

- MIC (C. albicans; [1]): > 64 µg/mL
- MIC (C. albicans; [2]): > 64 µg/mL
- MIC (C. albicans; [3]): > 64 µg/mL
- MIC (C. albicans; [4]): > 64 µg/mL
- MIC (C. albicans; [5]): > 64 µg/mL
- MIC (C. albicans; [6]): > 64 µg/mL
- MIC (C. glabrata; [7]): > 64 µg/mL
- MIC (C. glabrata; [8]): > 64 µg/mL
- MIC (C. glabrata; [9]): > 64 µg/mL
- MIC (C. glabrata; [10]): > 64 µg/mL
- MIC (C. glabrata; [11]): > 64 µg/mL
- MIC (C. glabrata; [12]): > 64 µg/mL
- MIC (C. neoformans; [13]): > 64 µg/mL
- MIC (C. neoformans; [14]): > 64 µg/mL
- MIC (C. neoformans; [15]): > 64 µg/mL
- MIC (C. neoformans; [16]): > 64 µg/mL
- MIC (C. neoformans; [17]): > 64 µg/mL
- MIC (C. neoformans; [18]): > 64 µg/mL
- MIC (R. arrhizus; [19]): 4 µg/mL (≈ 10.6 µM)
- MIC (R. arrhizus; [20]): 4 µg/mL (≈ 10.6 µM)
- MIC (R. arrhizus; [21]): > 64 µg/mL
- MIC (R. arrhizus; [22]): > 64 µg/mL
- MIC (R. arrhizus; [23]): > 64 µg/mL
- MIC (R. arrhizus; [24]): > 64 µg/mL
- MIC (F. solani; [25]): 1 µg/mL (≈ 2.65 µM)
- MIC (F. solani; [26]): 1 µg/mL (≈ 2.65 µM)
- MIC (F. solani; [27]): 2 µg/mL (≈ 5.31 µM)
- MIC (F. solani; [28]): > 64 µg/mL
- MIC (F. solani; [29]): > 64 µg/mL
- MIC (F. solani; [30]): > 64 µg/mL
- MIC (S. apiospermum; [31]): 1 µg/mL (≈ 2.65 µM)
- MIC (S. apiospermum; [32]): 1 µg/mL (≈ 2.65 µM)
- MIC (S. apiospermum; [33]): 1 µg/mL (≈ 2.65 µM)
- MIC (S. apiospermum; [34]): > 64 µg/mL
- MIC (S. apiospermum; [35]): > 64 µg/mL
- MIC (S. apiospermum; [36]): > 64 µg/mL
- MIC (A. fumigatus; 24 h, isolate 05-388, 24 hours): 2 µg/mL (≈ 5.31 µM)
- MIC (A. fumigatus; [37]): 2 µg/mL (≈ 5.31 µM)
- MIC (A. fumigatus; [38]): 2 µg/mL (≈ 5.31 µM)
- MIC (A. fumigatus; 48 h, isolate 05-388, 48 hours): > 64 µg/mL
- MIC (A. fumigatus; [39]): > 64 µg/mL
- MIC (A. fumigatus; [40]): > 64 µg/mL
- MIC (T. rubrum; [41]): 0.25 µg/mL (≈ 0.663 µM)
- MIC (T. rubrum; [42]): 0.25 µg/mL (≈ 0.663 µM)
- MIC (T. rubrum; [43]): 0.5 µg/mL (≈ 1.33 µM)
- MIC (T. rubrum; [44]): 0.5 µg/mL (≈ 1.33 µM)
Compound: O=C(CCCCCNC(=O)c1cc(Cl)ccc1S)Nc1ccccc1 [Compound 210]

- MIC (C. albicans; [1]): > 64 µg/mL
- MIC (C. albicans; [2]): > 64 µg/mL
- MIC (C. albicans; [3]): > 64 µg/mL
- MIC (C. albicans; [4]): > 64 µg/mL
- MIC (C. albicans; [5]): > 64 µg/mL
- MIC (C. albicans; [6]): > 64 µg/mL
- MIC (C. glabrata; [7]): > 64 µg/mL
- MIC (C. glabrata; [8]): > 64 µg/mL
- MIC (C. glabrata; [9]): > 64 µg/mL
- MIC (C. glabrata; [10]): > 64 µg/mL
- MIC (C. glabrata; [11]): > 64 µg/mL
- MIC (C. glabrata; [12]): > 64 µg/mL
- MIC (C. neoformans; [13]): 8 µg/mL (≈ 21.5 µM)
- MIC (C. neoformans; [14]): 8 µg/mL (≈ 21.5 µM)
- MIC (C. neoformans; [15]): 8 µg/mL (≈ 21.5 µM)
- MIC (C. neoformans; [16]): 16 µg/mL (≈ 43 µM)
- MIC (C. neoformans; [17]): 16 µg/mL (≈ 43 µM)
- MIC (C. neoformans; [18]): 16 µg/mL (≈ 43 µM)
- MIC (R. arrhizus; [19]): 4 µg/mL (≈ 10.7 µM)
- MIC (R. arrhizus; [20]): 4 µg/mL (≈ 10.7 µM)
- MIC (R. arrhizus; [21]): 8 µg/mL (≈ 21.5 µM)
- MIC (R. arrhizus; [22]): > 64 µg/mL
- MIC (R. arrhizus; [23]): > 64 µg/mL
- MIC (R. arrhizus; [24]): > 64 µg/mL
- MIC (F. solani; [25]): 4 µg/mL (≈ 10.7 µM)
- MIC (F. solani; [26]): 4 µg/mL (≈ 10.7 µM)
- MIC (F. solani; [27]): 2 µg/mL (≈ 5.37 µM)
- MIC (F. solani; [28]): 8 µg/mL (≈ 21.5 µM)
- MIC (F. solani; [29]): 8 µg/mL (≈ 21.5 µM)
- MIC (F. solani; [30]): 8 µg/mL (≈ 21.5 µM)
- MIC (S. apiospermum; [31]): 2 µg/mL (≈ 5.37 µM)
- MIC (S. apiospermum; [32]): 2 µg/mL (≈ 5.37 µM)
- MIC (S. apiospermum; [33]): 2 µg/mL (≈ 5.37 µM)
- MIC (S. apiospermum; [34]): 4 µg/mL (≈ 10.7 µM)
- MIC (S. apiospermum; [35]): 4 µg/mL (≈ 10.7 µM)
- MIC (S. apiospermum; [36]): 4 µg/mL (≈ 10.7 µM)
- MIC (A. fumigatus; 24 h, isolate 05-388, 24 hours): 2 µg/mL (≈ 5.37 µM)
- MIC (A. fumigatus; [37]): 2 µg/mL (≈ 5.37 µM)
- MIC (A. fumigatus; [38]): 2 µg/mL (≈ 5.37 µM)
- MIC (A. fumigatus; 48 h, isolate 05-388, 48 hours): > 64 µg/mL
- MIC (A. fumigatus; [39]): > 64 µg/mL
- MIC (A. fumigatus; [40]): > 64 µg/mL
- MIC (T. rubrum; [41]): ≤ 0.125 µg/mL
- MIC (T. rubrum; [42]): ≤ 0.125 µg/mL
- MIC (T. rubrum; [43]): ≤ 0.125 µg/mL
- MIC (T. rubrum; [44]): ≤ 0.125 µg/mL
Compound: COc1ccc(S)c(C(=O)NCCCCCC(=O)Nc2ccccc2)c1 [Compound 211]

From US8455688B2, “HDAC inhibitors” (Lixte Biotechnology, Inc., priority 2007, dated 2013)
